What is called logP is a log measure of how a compound divides between an organic and an aqueous phase. The logD is lipophilicity at a set pH, counting ionised and neutral species.

These results are taken from the SangsterLogP compilation.

This data set is described as follows: method code SF, from Hansch, C. & Leo, A. (1987). Log P database [Dataset]. Pomona College Medicinal Chemistry Project.

`CCCCCc1ccc(O)cc1`: the logP was 4.06.
The same measure, in the same setting: the same measure for `CN(C)Cc1cccs1`: 1.67.
Compound `O=C(c1ccncc1)c1ccc([N+](=O)[O-])cc1` yielded a lipophilicity (logP) of 1.76.
The same measure, in the same setting: with `CN(C)Cc1ccco1` the figure was 1.19; with `CC(=O)Nc1ccc(CN(C)/N=N/c2ccc(C(=O)O)cc2)cc1`, 3.35; with `CCOC(=O)C(=Cc1ccc([N+](=O)[O-])cc1)C(=O)OCC`, 3.03.
The same measure, in the same setting: with `O=NN(CCF)C(=O)NCCCl` the figure was 0.95.
Same read-out and setting: with `COC(=O)C[C@](O)(CCC(C)(C)O)C(=O)O[C@@H]1C(OC)=C[C@]23CCCN2CCc2cc4c(cc2[C@H]13)OCO4` the figure was 0.65.
`NC(=O)/C=C/c1ccc2c(c1)OCO2`: the logP came out at 1.4.
Still for that read-out and setting: the same measure for `CC(C)CCC(=O)c1ccoc1`: 2.76; for `OC(c1nc2ccccc2[nH]1)C(O)c1nc2ccccc2[nH]1` (centres undefined): 1.14.
As for `c1ccc2c(c1)CCc1ccccc1NC2`, the log partition coefficient (logP) was 2.82.
Still for that read-out and setting: the same measure for `CCN(CC)c1ccc(/N=N/c2ccc(Br)cn2)c(O)c1`: 4.23; for `CC(=O)Oc1cccc(F)c1`: 1.74.
Compound `Cc1[nH]c(=O)[nH]c(=O)c1N(CCF)CCCl` showed a logD (pH 7.4) of 0.85.
For the compound `CC(=O)Oc1ccc(N=C2C=CC(=O)C=C2)cc1`, the logP was 1.43.
For `Ic1cn[nH]c1`, the lipophilicity (logP) is 1.7.
On the same count and under the same terms, the same measure for `COCC1=Nc2cc(Cl)ccc2S(=O)(=O)N1`: 1.12; for `OCCCCCl`: 0.85.
The same measure, in the same setting: the same measure for `CNC(=O)O/N=C(\C)C(C)(C)[N+](=O)[O-]`: 0.66.
The same measure, in the same setting: with `CNC(=O)Oc1cc(C)c(Cl)cc1C` the figure was 2.95.
As for `CCOC(=O)C(=Cc1cccc(Cl)c1)C(C)=O`, the logP stood at 2.97.
In turn, `Nc1ccccc1I` returned a logP of 2.32.
Compound `C=CCc1ccccc1` came in with a logP of 3.23.
On the same count and under the same terms, the same measure for `N#CN=[N+]([O-])c1cccc(Br)c1`: 2.56; for `CSc1nccc(O)n1`: 0.22.
On the same count and under the same terms, the same measure for `CC(C)c1ccccc1OCC(=O)O`: 2.84; for `NC(=O)c1cccc([N+](=O)[O-])c1`: 0.77.
The same measure, in the same setting: the same measure for `O=C(O)c1ccsc1`: 1.5; for `CN(C(=O)COc1ccccc1)c1ccccc1`: 2.25; for `CC1=Nc2cc(C)ccc2S(=O)(=O)N1`: 0.74.
The compound `CC1=Nc2ccccc2S(=O)(=O)N1` had a logP of 0.29.
`CCC(=O)OCCOc1ccc(C=O)cc1OC`: the logP is 1.33.
The same measure, in the same setting: with `O=C(NC1CC1)c1cc(N2CC2)c([N+](=O)[O-])cc1[N+](=O)[O-]` the figure was 0.74; with `Cn1c(=O)ccc2ccccc21`, 1.45.
Still for that read-out and setting: the same measure for `c1ccc(-c2ccc(C(c3ccccc3)n3ccnc3)cc2)cc1` (centres undefined): 4.77; for `O=[N+]([O-])c1cccc2ncccc12`: 1.86.
Same read-out and setting: the same measure for `COc1ccccc1OC`: 1.79; for `C#CCCC(C)=O`: 0.58; for `Cc1ccc2[nH]c(=O)[nH]c(=O)c2c1`: 0.55.
Take `NN1CCCCC1`: the logD (pH 9.0) is -0.28.
Regarding `COc1cccc2c1C(=O)c1c(O)c3c(c(O)c1C2=O)CC(O)(C(=O)CN1CCOCC1)CC3OC1CC(N)C(O)C(C)O1` (centres undefined), the logP was found to be 0.23.
On the same count and under the same terms, the same measure for `CCOP(=S)(OCC)SCS(=O)(=O)C(C)(C)C`: 2.48.
`CCOC(=O)C(=Cc1cccc(Cl)c1)C(=O)OCC` yielded a logP of 3.49.
On the same count and under the same terms, with `OCC(F)(F)C(F)(F)C(F)(F)F` the figure was 1.81; with `CC(=O)OC1CCCCC1NC(=O)N(CCCl)N=O` (centres undefined), 1.93.
On the same count and under the same terms, the same measure for `CC1=Nc2ccc(S(=O)(=O)N(C)C)cc2S(=O)(=O)N1`: 0.32; for `c1ccc(CSc2cnn[nH]2)cc1`: 2.65; for `CC1(C)O[C@@H]2C[C@H]3[C@@H]4CCC5=CC(=O)C=C[C@]5(C)[C@@]4(F)[C@@H](O)C[C@]3(C)[C@]2(C(=O)CO)O1`: 2.53.
Regarding `O=C(NO)c1ccccc1`, the logP was determined as 0.26.
Still for that read-out and setting: with `CC(=O)Nc1cc2c(cc1Cl)S(=O)(=O)NC(C)=N2` the figure was 0.53.
Compound `Nc1cc(C(F)(F)F)cc(C(F)(F)F)c1` showed a logP of 3.57.
The same measure, in the same setting: the same measure for `OC/C=C/c1ccccc1`: 1.95; for `NC(=O)c1cccc(OC(=O)CNC(=O)c2ccccc2)c1`: 1.2.
In turn, `CNP(=O)(OC)Oc1ccc(C(C)(C)C)cc1Cl` (centres undefined) gave a logP of 3.42.
Same read-out and setting: the same measure for `C1=CCOC1`: 0.46; for `CCCCOc1cccc(C=C(C(=O)OCC)C(=O)OCC)c1`: 4.03; for `CCCCSC(C)(C)C(N)=O`: 1.81.
Same read-out and setting: the same measure for `CCOC(=O)C(Cc1ccccc1)C(=O)OCC`: 2.76.
For the compound `CC1(C)N=C(N)N=C(N)N1c1ccc(N)cc1`, the pH-dependent lipophilicity (logD) (pH 13.0) was -0.59.
In turn, `O=[N+]([O-])C=Cc1ccoc1` had a logP of 1.41.
For the compound `O=S1(=O)NC(C2CCC2)=Nc2ccc(Cl)cc21`, the logP was 2.24.
The same measure, in the same setting: the same measure for `NC(=O)c1ccccc1F`: 0.64; for `CC1=Nc2cc(Br)ccc2S(=O)(=O)N1`: 1.37; for `CC(O)CCC(=O)c1ccoc1` (centres undefined): 0.84.
The same measure, in the same setting: the same measure for `Cc1ccsc1`: 2.34; for `COc1cccc(C(=O)N(C)C)c1`: 1.
On the same count and under the same terms, with `CN(C)C(=S)NCc1ccccc1` the figure was 1.59.
In the case of `CCc1ccc2c(c1)C(=O)c1ccc(NC(C)=O)cc1S2(=O)=O`, the logP is 3.44.
In turn, `COC(=O)c1ccccc1NC(C)=O` yielded a logP of 1.65.
Still for that read-out and setting: the same measure for `CCCOc1cccc(C=C(C(=O)OCC)C(=O)OCC)c1`: 4; for `O=[N+]([O-])C=Cc1ccsc1`: 1.94; for `CNC(=O)Oc1cc(C)c(Cl)cc1Cl`: 3.
Still for that read-out and setting: with `O=C(O)COc1ccc(F)c(I)c1` the figure was 2.42; with `CC(=O)Oc1ccc([N+](=O)[O-])cc1`, 1.5.
Turning to `CCc1ccc(NC(C)=O)cc1`, the logP stood at 2.11.
Still for that read-out and setting: the same measure for `Cl/C=C/Cl`: 2.09; for `O=[N+]([O-])c1ccc(CCO)cc1`: 1.12; for `Nc1ccc2ccccc2c1S(=O)(=O)O`: -1.16.
In turn, `COc1ccc(Cc2cnc(N)nc2N)c(OC)c1OC` had a pH-dependent lipophilicity (logD) (pH 13.0) of 1.52.
In the case of `CN(C)c1ncnc2sccc12`, the lipophilicity (logP) was 1.82.
Take `NNc1ccc(Br)cc1`: the logD (pH 13.0) is 1.39.
For `CCCCc1ccc(C(=O)O)nc1`, the logD (pH 2.0) was 0.68.
`CNC(=O)NCCSCc1nc[nH]c1C` displayed a logP of -0.06.
Consider `CNC(=S)NCc1ccccc1`, for which the log partition coefficient (logP) was determined as 1.35.
On to `CN(CCO)C1=C(N2CC2)C(=O)C(N(C)CCO)=C(N2CC2)C1=O`, for which the logP is -0.37.
On the same count and under the same terms, the same measure for `OC(C1CO1)C(O)C1CO1` (centres undefined): -1.29; for `c1ccc2c(c1)Cc1ccccc1C2`: 4.25.
Still for that read-out and setting: the same measure for `CC(=O)Nc1ccc2c(c1)[nH]c1ccccc12`: 3.02; for `Cc1c(Cl)c(Cl)c(Cl)c(Cl)c1Cl`: 5.62; for `CC(CN(C)C)CN1c2ccccc2Sc2ccccc21` (centres undefined): 4.71.
`O=c1[nH]ncc2ccccc12` returned a log partition coefficient (logP) of 0.75.
Same read-out and setting: with `NS(=O)(=O)c1cccc(OC(=O)CNC(=O)c2ccccc2)c1` the figure was 0.84; with `CC(=O)NCCC(=O)N(C)c1ccc(S(=O)(=O)N(C)C)cc1`, -0.35.
